# Assay results from patent US20050288299A1, “Azaindole derivatives as inhibitors of p38 kinase” (priority 2002, published 2005).
# Target: p38α kinase (Homo sapiens, UniProt Q16539)
# Test: p38α Flash Plate Assay (p38 kinase inhibition)
# Type: biochemical
# Details: in vitro; 150 μM ATP, 0.05 mM biotinylated peptide substrate, 5 nM enzyme, 60 minute incubation at 30° Celsius; read-out: P38 α-FLASHPLATE IC50
# Protocol: Assay for p38 Kinase Inhibition—p38α Flash Plate Assay
# The compounds to be tested were solubilized in DMSO and diluted with water to the desired concentrations. The p38 kinase was diluted to 20 nM into a buffer containing 20 mM MOPS, pH 7.0, 25 mM beta-glycerol phosphate, 2 mg/ml gelatin, 0.5 mM EGTA (ethylene-bis-(oxyethylenenitrilo)-tetraacetic acid), and 4 mM dithiothreitol (DTT).
# The reaction was carried out by mixing 20 μl test compound with 10 μl of a substrate cocktail containing 0.2 mM biotinylated peptide substrate and 0.6 mM ATP (+100 μCi/ml gamma-^33P-ATP) in a 5× assay buffer. The reaction was initiated by the addition of 10 μl of p38 kinase. Final assay conditions were 25 mM MOPS, pH 7.0, 26.25 mM beta-glycerol phosphate, 80 mM KCl, 22 mM MgCl2, 3 mM MgSO4, 1 mg/ml gelatin, 0.625 mM EGTA, 1 mM DTT, 0.05 mM peptide substrate, 150 μM ATP, and 5 nM enzyme. After a 60 minute incubation at 30° Celsius, the reaction was stopped by the addition of 10 μl per reaction of 0.25 M phosphoric acid.
# A portion of the reaction was transferred to a streptavidin-coated Flash Plate (Perkin Elmer); the Flash Plate was incubated for 60 minutes at 30° Celsius and then washed 3× with PBS containing 0.01% Tween-20.
# Counts incorporated are determined on a scintillation counter. Relative enzyme activity was calculated by subtracting background counts (counts measured in the absence of enzyme) from each result, and comparing the resulting counts to those obtained in the absence of inhibitor. IC50 values were determined with curve-fitting plots available with common software packages. The IC50 was expressed as the concentration of compound which inhibited the enzyme activity by 50%.
# Chain of p38α kinase (Q16539 whole entry): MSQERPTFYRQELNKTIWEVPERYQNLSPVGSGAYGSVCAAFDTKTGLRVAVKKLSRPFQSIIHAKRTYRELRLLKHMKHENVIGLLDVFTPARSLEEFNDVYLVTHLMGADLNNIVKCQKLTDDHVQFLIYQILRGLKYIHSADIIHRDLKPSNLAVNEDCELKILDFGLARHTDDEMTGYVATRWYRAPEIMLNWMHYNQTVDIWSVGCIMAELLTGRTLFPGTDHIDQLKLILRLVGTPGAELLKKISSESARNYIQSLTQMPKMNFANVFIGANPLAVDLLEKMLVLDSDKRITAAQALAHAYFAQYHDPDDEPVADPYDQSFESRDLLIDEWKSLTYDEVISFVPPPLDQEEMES
row,SMILES,IC50
1,CNC(=O)C(=O)c1cn(C)c2nc(OC)c(C(=O)N3C[C@H](C)N(Cc4ccc(F)cc4)C[C@H]3C)cc12 [compound 42],0.02 µM
2,CNC(=O)C(=O)c1c[nH]c2cc(Cl)c(C(=O)N3C[C@H](C)N(Cc4ccc(F)cc4)C[C@H]3C)nc12 [compound 73],0.02 µM
3,COCn1cc(C(=O)C(=O)N2CCCC2)c2cc(C(=O)N3C[C@H](C)N(Cc4ccc(F)cc4)C[C@H]3C)c(OC)nc21 [compound 56],0.04 µM
4,COc1nc2[nH]cc(C(=O)C(N)=O)c2cc1C(=O)N1C[C@H](C)N(Cc2ccc(F)cc2)C[C@H]1C [compound 30],0.01 µM
5,CCOc1nc2[nH]cc(C(=O)C(=O)NC(C)C)c2cc1C(=O)N1C[C@H](C)N(Cc2ccc(F)cc2)C[C@H]1C [compound 58],0.05 µM
6,COC(=O)C(=O)c1c[nH]c2cc(Cl)c(C(=O)N3C[C@H](C)N(Cc4ccc(F)cc4)C[C@H]3C)nc12 [compound 71],0.034 µM
7,CCOc1nc2[nH]cc(C(=O)C(N)=O)c2cc1C(=O)N1C[C@H](C)N(Cc2ccc(F)cc2)C[C@H]1C [compound 35],0.02 µM
8,COc1nc2[nH]cc(C(=O)C(=O)NC(C)C)c2cc1C(=O)N1C[C@H](C)N(Cc2ccc(F)cc2)C[C@H]1C [compound 48],0.05 µM
9,CCOc1nc2[nH]cc(C(=O)C(=O)N3CCCC3)c2cc1C(=O)N1C[C@H](C)N(Cc2ccc(F)cc2)C[C@H]1C [compound 59],0.03 µM
10,COc1nc2[nH]cc(C(=O)C(N)=O)c2cc1C(=O)N1CCN(Cc2ccc(F)cc2)C[C@H]1C [compound 31],0.1 µM
11,COc1nc2[nH]cc(C(=O)C(=O)N(C)C)c2cc1C(=O)N1C[C@H](C)N(C(c2ccccc2)c2ccccc2)C[C@H]1C [compound 22],0.07 µM
12,CCNC(=O)C(=O)c1cn(C)c2nc(OC)c(C(=O)N3C[C@H](C)N(Cc4ccc(F)cc4)C[C@H]3C)cc12 [compound 44],0.07 µM
13,COc1nc2[nH]c(C)c(C(=O)C(=O)N3CCCC3)c2cc1C(=O)N1CCC(Cc2ccc(F)cc2)CC1 [compound 15],0.038 µM
14,CCOc1nc2[nH]cc(C(=O)C(N)=O)c2cc1C(=O)N1CCC(Cc2ccc(F)cc2)CC1 [compound 37],0.067 µM
15,CCOc1nc2[nH]cc(C(=O)C(=O)NC)c2cc1C(=O)N1CCC(Cc2ccc(F)cc2)CC1 [compound 36],0.064 µM
16,CNC(=O)C(=O)c1cn(COC)c2nc(OC)c(C(=O)N3C[C@H](C)N(Cc4ccc(F)cc4)C[C@H]3C)cc12 [compound 54],0.05 µM

row,SMILES,IC50
1,Cc1nc2c(ccn2C)cc1C(=O)N1C[C@H](C)N(Cc2ccc(F)cc2)C[C@H]1C [compound 60],0.16 µM
2,CCNC(=O)C(=O)c1c[nH]c2nc(OC)c(C(=O)N3CCC(Cc4ccc(F)cc4)CC3)cc12 [compound 16],0.039 µM
3,COCn1cc(C(=O)C(N)=O)c2cc(C(=O)N3C[C@H](C)N(Cc4ccc(F)cc4)C[C@H]3C)c(OC)nc21 [compound 53],0.03 µM
4,CNC(=O)C(=O)c1cn(C)c2nc(C)c(C(=O)N3C[C@H](C)N(Cc4ccc(F)cc4)C[C@H]3C)cc12 [compound 61],0.09 µM
5,COC(=O)C(=O)c1c[nH]c2ccc(C(=O)N3C[C@H](C)N(Cc4ccc(F)cc4)C[C@H]3C)nc12 [compound 68],0.76 µM
6,C[C@@H]1CN(Cc2ccc(F)cc2)[C@@H](C)CN1C(=O)c1nc2c(C(=O)C(=O)O)c[nH]c2cc1Cl [compound 72],0.014 µM
7,CNC(=O)C(=O)c1c[nH]c2cc(OC)c(C(=O)N3C[C@H](C)N(Cc4ccc(F)cc4)C[C@H]3C)nc12 [compound 76],0.098 µM
8,Cc1nc2[nH]cc(C(=O)C(N)=O)c2cc1C(=O)N1C[C@H](C)N(Cc2ccc(F)cc2)C[C@H]1C [compound 66],0.08 µM
9,C[C@@H]1CN(Cc2ccc(F)cc2)[C@@H](C)CN1C(=O)c1ccc2[nH]cc(C(=O)C(=O)O)c2n1 [compound 69],0.7 µM
10,CCNC(=O)C(=O)c1cn(COC)c2nc(OC)c(C(=O)N3C[C@H](C)N(Cc4ccc(F)cc4)C[C@H]3C)cc12 [compound 51],0.06 µM
11,CNC(=O)C(=O)c1c[nH]c2ccc(C(=O)N3C[C@H](C)N(Cc4ccc(F)cc4)C[C@H]3C)nc12 [compound 70],0.6 µM
12,COc1nc2c(cc1C(=O)N1C[C@H](C)N(Cc3ccc(F)cc3)C[C@H]1C)c(C(=O)C(N)=O)cn2C [compound 41],0.02 µM
13,COc1nc2c(cc1C(=O)N1C[C@H](C)N(Cc3ccc(F)cc3)C[C@H]1C)c(C(=O)C(=O)N(C)OC)cn2C [compound 45],0.02 µM
14,COc1nc2[nH]cc(C(=O)C(=O)N3CCCC3)c2cc1C(=O)N1C[C@H](C)N(C(c2ccccc2)c2ccccc2)C[C@H]1C [compound 23],0.12 µM
15,"COc1nc2[nH]cc(C(=O)C(=O)N3CCCC3)c2cc1C(=O)N1C[C@H](C)N(Cc2ccc(F)cc2)C[C@H]1C [No. 5, 1-{5-[4-(4-Fluoro-benzyl)-2R,5S-dimethyl-piperazine-1-carbonyl]-6-methoxy-1H-pyrrolo[2,3-b]pyridin-3-yl}-2-pyrrolidin-1-yl-ethane-1,2-dione]",0.03 µM
16,CCNC(=O)C(=O)c1c[nH]c2nc(OC)c(C(=O)N3C[C@H](C)N(Cc4ccc(F)cc4)C[C@H]3C)cc12 [compound 47],0.02 µM
